According to patent US9315531B2, “Titanocene-gold derivatives comprising thiolato ligands” (Research Foundation of the City University of New York, priority 2014, dated 2016):

Legend:
[1] = Pharmacokinetics in blood/plasma (ICP-MS, gold content)
Description: Blood was collected by retro-orbital bleeding into heparinized blood collection vials on ice at time intervals of 30 minutes, 2 hours, 6 hours, 24 hours, and 48 hours after the first dose.
Gold and titanium content was determined using ICP-MS. […] The mixture was heated at 90° C. for 5 hours. After cooling, the samples were diluted with water, 40 ppb of Indium internal standard was added and analyzed in a Thermo Scientific XSERIES 2 ICP-MS with ESI PC3 Peltier cooled spray chamber with SC-FAST injection loop and SC-4 autosampler. All the elements were analyzed using He/H2 collision-reaction mode. Plasma from control mice was spiked with the test compounds to determine the extraction efficiency of gold and titanium.
Pharmacokinetic estimates were obtained from the plasma concentration-time profiles by non-compartmental analysis.

plasmid pBR322 DNA = experiment: Electrophoresis mobility shift assay; type: binding; settings: metal/DNAbp ratios 0.25-2.0, 37° C., 20 h
Description: Agarose gel electrophoresis assays were performed whereby decreased electrophoretic mobility of both forms were taken as evidence of metal-DNA binding.
Mobility Shift Assay: 10 μL aliquots of pBR322 plasmid DNA (20 μg/mL) in buffer (5 mM Tris/HCl, 50 mM NaClO4, pH=7.39) were incubated with different concentrations of the compounds (2, 3, 4, 5), and titanocene dichloride) (in the range 0.25 and 4.0 metal complex:DNA bp) at 37° C. for 20 h in the dark. Samples of free DNA and cisplatin-DNA were prepared as controls. After the incubation period, the samples were loaded onto the 1% agarose gel. The samples were separated by electrophoresis for 1.5 h at 80 V in Tris-acetate/EDTA buffer (TAE). Afterwards, the gel was stained for 30 min with a solution of GelRed nucleic acid stain.

Caki-1 cells [2] = type: cell-based, human; settings: Caki-1, 5 μM
Description: Anti-invasive properties were evaluated by using a wound-healing scratch assay.
Cell migration: For wound healing assays, Caki-1 cells were seeded in 6 cm dishes at a density of 0.8×10^6 in complete media, then grown to confluence for twenty-four hours at 37° C. (5% CO2), then cross-shape wounds/scratches were performed in the monolayer using a sterile 10 μl pipette tip. […] To quantify cell migration, the area of the initial wound (T0) is compared with the area of the healing wound at three time points after the scratch is introduced. Percent Migration=[area of original wound−area of wound during healing]/Area of original wound]×100.

[3] = Stability in solution (DMSO-d6, CDCl3, DMSO/PBS); type: physicochemical
Description: Both compound 2 and compound 3 were less acidic than titanocene dichloride and were soluble in DMSO/water, DMSO/PBS and DMSO/media (1:99) mixtures at micromolar concentrations. These compounds were unusually stable methyl-containing titanocene moieties that were stable as solids at room temperature, while exposed to air in CDCl3 solution for at least five days.

Caki-1 cells [4] = experiment: Annexin V/PI apoptosis assay; type: cell-based, human; settings: Caki-1, 6 hours incubation, 10 μM
Description: To gain insight concerning the type of cell death that is induced in cancer cell lines, apoptosis assays were performed with Caki-1 cells with compound 2 dissolved in 1% DMSO solution in media. A 1% solution in media (FIG. 7) and staurosporine (FIG. 8) were used as controls. In early stages of apoptosis, one of the significant biochemical features is loss of plasma membrane phospholipid asymmetry due to translocation of phosphatidylserine (PS) from cytoplasmic to extracellular side. This characteristic allows detection of externalized PS by the specific binding of Annexin V (FITC-conjugated). Initiation of cell death will eventually result in the permeabilization of the cell membrane, allowing Pi to stain DNA within the nucleus. […] After incubation during 6 hours with 10 μM of compound 2 necrosis can be clearly proposed.
Annexin V/PI assay: Confluent Caki-1 cells were treated with either […], 0.1% DMSO or 5 μM of staurosporine for 6 h. […] Stained cells were analyzed by flow cytometry using Accuri C6 software (BD Biosciences, San Jose, Calif., USA).

RPTC = experiment: Cell viability assay (XTT), RPTC; type: cell-based; settings: 72 h incubation; human renal proximal tubular cells
Description: Cell Culture: Human renal cell carcinoma lines A498, Caki-1 and UO31, as well as the human prostate carcinoma cell lines DU145 and PC3 were newly obtained for these studies from the American Type Culture Collection (ATCC) (Manassas, Va., USA) and cultured in Roswell Park Memorial Institute (RPMI-1640) (Mediatech Inc., Manassas, Va.) media containing 10% fetal bovine serum (FBS, Life Technologies, Grand Island, N.Y.), 1% Minimum Essential Media (MEM) nonessential amino acids (NEAA, Mediatech) and 1% penicillin-streptomycin (PenStrep, Mediatech). HEK-293T cells were newly purchased from ATCC (Manassas, Va., USA) and maintained in Dulbecco's modified Eagle's medium (DMEM) (Mediatech) supplemented with 10% FBS, 1% NEAA and 1% PenStrep. Normal human renal epithelial cells (RPTC) were purchased from Lifeline Cell Technology (Lifeline Cell Technology, Frederick, Md., USA) and maintained in Lifeline's Renal Life Medium from Lifeline Cell Technology supplemented with 2.4 mM L-glutamine, 5 μg/mL rh insulin, 1.0 nM epinephrine, 10 nM triiodothyronine, 0.1 μg/mL hydrocortisone hemisuccinate, 10 ng/mL rhEGF, 0.50% FBS, 5 μg/mL transferrin PS. All cells were cultured at 37° C. and 5% CO2 in a humidified incubator.
Cell Viability Assay: Cells were seeded at a concentration of 5000 cells/90 μl per well of either RPMI or DMEM without phenol red and without antibiotics, supplemented with 10% FBS and 2 mM L-glutamine into tissue culture grade 96-well flat bottom microplates (BioLite Microwell Plate, Fisher Scientific, Waltham, Mass., USA) and grown for 24 h at 37° C. in a humidified incubator. Afterwards, the intermediate dilutions of the compounds were added to the wells (10 μL) to obtain a final concentration ranging from 0.1 to 200 μM, and the cells were incubated for 24 h or 72 h. […] The optical absorbance of each well in a 96-well plate was quantified using BioTek ELx808 absorbance microplate reader (BioTek Winooski, Vt.) set at 450 nm wavelength. The percentage of surviving cells was calculated from the ratio of absorbance of treated to untreated cells.

[5] = end of the study
Description: At the end of the study, liver, kidney and tumor of the animals were harvested, weighed and transferred into glass vials. One ml of water was added to each samples and subjected to ultrasonic tissue disruption at 15 W power for 1 minute. The tissue homogenates were frozen at −80° C. for two hours and lyophilized. The lyophilized product was heated at 90° C. with the concentrated acid mix (described above) for five hours, cooled, diluted with water and analyzed for titanium and gold by ICP-MS.

Description for thioredoxin reductase: After 5, 12 or 24 hours of treatment incubation cells were washed three times in PBS, and lysed by douncing using scrapers and sheer force though syringe with a 34 gauge needle in assay buffer (Abeam Thioredoxin Reductase Assay kit, ab83463) added to 1 mM protease inhibitor cocktail (Abeam, ab65621). The lysates were centrifuged at 10,000×g for 15 minutes at 4° C. to isolate insoluble material. The total protein concentrations of soluble lysates were measured using the BCA Protein Assay (Life Technologies). The soluble lysates were incubated for 20 minutes in assay buffer with a proprietary thioredoxin reductase specific inhibitor before adding a specific substrate, DTNB (5, 5′-dithiobis(2-nitrobenzoic) acid), and measuring activity at 1 minute intervals for 30 minutes using the BioTek fluorescence microplate reader (BioTek U.S., Winooski, Vt.) set at =412 nm. Lysates were tested in duplicate. TrxR activity was calculated based on the linear amount of TNB produced per minute per mg of total protein and corrected for background activity from enzymes other than TrxR in the lysates.

## [(η-C5H5)2TiMe(μ-mba)Au(PPh3)] [Compound 2]
Thioredoxin reductase; Caki-1 cells, 5 μM, five hour incubation
  inhibition of thioredoxin reductase activity: 31.6%
Thioredoxin reductase; read-out: IC50 thioredoxin reductase in Caki-1 cells, after twelve hours
  IC50: 880 nM
[1]; 48 hours after the first dose, 3 mg/kg
  blood concentration at the time of the second dose: 40400 ± 6000 ng/mL
[1]; blood levels up to twenty-four hours
  absorption into blood: slow absorption
Plasmid pBR322 DNA
  effect on electrophoretic mobility of plasmid DNA forms: did not affect the mobility
Caki-1 cells [2]
  inhibition of migration: complete inhibition of migration
[3]; DMSO-d6
  half-life in DMSO-d6: eight
[3]; DMSO-d6, same solvent
  half-life fold larger than corresponding compound 6 / compound 7: sixteen
[3]; micromolar concentration in 1:99 DMSO/PBS, 23 h, physiological pH
  UV-vis spectra over time: did not change over time
Caki-1 cells [4]
  type of cell death induced: necrosis
RPTC
  IC50: 2670 ± 120 nM
[5]
  accumulation in liver and kidney: accumulated in the liver and kidney to a more significant degree
